Assay results as given in patent US20180037568A1, “MODULATORS OF METHYL MODIFYING ENZYMES, COMPOSITIONS AND USES THEREOF” (Constellation Pharmaceuticals, Inc., priority 2015, published 2018).
Where two headings read alike, the source gives them in different places.

Assays:
[1] = target: T1, PRC2 containing wt EZH2 (Homo sapiens, UniProt Q15910); experiment: EZH2 pep BSA Brij 4.0 LowE (IC50): 3H-SAM incorporation into biotinylated H3 peptide; assay type: biochemical
T1 construct: made in house
How it was run: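 PRC2 (wt EZH2, 20 pM) pre-incubated 120 min with compound, 0.9 μM 3H-SAM and 2 μM H3K27me3 activating peptide in pH 8.5 Tris/DTT/Brij-35/0.1% BSA, 0.8% DMSO. Biotinylated H3K27me1 peptide added (2 μM stock), 5 h at room temperature, EDTA/SAH quench, streptavidin Flashplate capture. IC50 from four-parameter fit versus full-activity and no-enzyme controls.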

[2] = target: EZH2 (Homo sapiens, UniProt Q15910); experiment: EZH2 nuc BSA Brij 1.5 (IC50): rPRC2, biotinylated oligonucleosome substrate, 3H SAM FlashPlate; assay type: biochemical
Method: EZH2 Nuc BSA Brij 1.5 (IC50):
Assays were carried out by mixing rPRC2 together with biotinylated oligonucleosome substrates in the presence of the radio-labeled enzyme co-factor, S-adenosyl-L-methionine (^3H SAM) (Perkin Elmer) and monitoring the enzymatically mediated transfer of tritiated methyl groups from ^3H SAM to histone lysine residues. The amount of resulting tritiated methyl histone product was measured by first capturing the biotinylated oligonucleosomes in streptavidin (SAV) coated FlashPlates (Perkin Elmer), followed by a wash step to remove un-reacted ^3H SAM, and then counting on a TopCount NXT 384 well plate scintillation counter (Perkin Elmer). The final assay conditions for EZH2 were as follows: 50 mM Tris Buffer pH 8.5, 1 mM DTT, 69 μM Brij-35 detergent, 5.0 mM MgCl2, 0.1 mg/mL BSA, 0.2 μM ^3H SAM, 0.2 μM biotinylated oligonucleosomes, 3.6 μM H3K27me3 peptide and 2 nM EZH2.
Compound IC50 Measurements were Obtained as Follows:
Compounds were first dissolved in 100% DMSO as 10 mM stock solutions. Ten point dose response curves were generated by dispensing varying amounts of the 10 mM compound solution in 10 wells of the 384 well plate (Echo; Labcyte), pure DMSO was then used to backfill the wells to insure all wells have the same amount of DMSO. A 12.5 μL volume of the HMT enzyme, H3K27me3 peptide and oligonucleosome substrate in assay buffer was added to each well of the assay plate using a Multidrop Combi (ThermoFisher). Compounds were pre-incubated with the enzyme for 20 min, followed by initiation of the methyltransferase reaction by addition of 12.5 μL of ^3H SAM in assay buffer (final volume=25 μL). The final concentrations of compounds ranged from a top default concentration of 80 μM down to 0.16 μM in ten 2-fold dilution steps. Reactions were carried out for 60 minutes and quenched with 20 μL per well of 1.96 mM SAH, 50 mM Tris pH 8.5, 200 mM EDTA. Stopped reactions were transferred to SAV coated Flashplates (Perkin Elmer), incubated for 120 min, washed with a plate washer, and then read on the TopCount NXT (1.0 min/well) to measure the amount of methyl histone product formed during the reaction. The amount of methyl histone product was compared with the amount of product formed in the 0% and 100% inhibition control wells allowing the calculation of % Inhibition in the presence of the individual compounds at various concentrations. IC50's were computed using a 4 parameter fit non-linear curve fitting software package (XLFIT, part of the database package, ActivityBase (IDBS)) where the four parameters were IC50, Hill slope, pre-transitional baseline (0% INH), and post-transitional baseline (100% INH); with the latter two parameters being fixed to zero and 100%, respectively, by default.

[3] = tested on: H3K27me3 mark; experiment: H3K27me3 Alpha Hela Assay (AlphaLISA); assay type: cell-based; conditions: Hela cells, read-out: EZH2 Cell H3K27me3 Alpha HeLa (EC50 K27me3)
How it was run: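 HeLa cells at 1,000/well were treated with ten 3-fold compound doses for 72 h at 37 °C. After lysis and histone extraction, H3K27me3 was detected by AlphaLISA with anti-K27me3 acceptor beads, biotinylated anti-H3 (C-ter) antibody (3 nM final) and streptavidin donor beads (20 μg/mL final). Signals were normalized to DMSO and curve-fitted for EC50.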

[4] = EZH2 pep BSA Brij 4.0 LowE (IC50), 20 pM PRC2 wt EZH2, 0.9 μM 3H-SAM, biotinylated H3 peptide substrate, 2 μM H3K27me3 activating peptide
[5] = EZH2 nuc BSA Brij 1.5 (IC50), 2 nM EZH2, 0.2 μM biotinylated oligonucleosomes, 0.2 μM 3H SAM, 3.6 μM H3K27me3 peptide
[6] = read-out: EZH2 nuc BSA Brij 1.5 (IC50); 2 nM EZH2, 0.2 μM biotinylated oligonucleosomes, 0.2 μM 3H SAM, 3.6 μM H3K27me3 peptide
[7] = read-out: EZH2 pep BSA Brij 4.0 LowE (IC50); 20 pM PRC2 wt EZH2, 0.9 μM 3H-SAM, biotinylated H3 peptide substrate, 2 μM H3K27me3 activating peptide
[8] = 20 pM PRC2 wt EZH2, 0.9 μM 3H-SAM, biotinylated H3 peptide substrate, 2 μM H3K27me3 activating peptide; read-out: EZH2 pep BSA Brij 4.0 LowE (IC50)
[9] = 2 nM EZH2, 0.2 μM biotinylated oligonucleosomes, 0.2 μM 3H SAM, 3.6 μM H3K27me3 peptide; read-out: EZH2 nuc BSA Brij 1.5 (IC50)

Chain of EZH2 (Q15910 whole entry): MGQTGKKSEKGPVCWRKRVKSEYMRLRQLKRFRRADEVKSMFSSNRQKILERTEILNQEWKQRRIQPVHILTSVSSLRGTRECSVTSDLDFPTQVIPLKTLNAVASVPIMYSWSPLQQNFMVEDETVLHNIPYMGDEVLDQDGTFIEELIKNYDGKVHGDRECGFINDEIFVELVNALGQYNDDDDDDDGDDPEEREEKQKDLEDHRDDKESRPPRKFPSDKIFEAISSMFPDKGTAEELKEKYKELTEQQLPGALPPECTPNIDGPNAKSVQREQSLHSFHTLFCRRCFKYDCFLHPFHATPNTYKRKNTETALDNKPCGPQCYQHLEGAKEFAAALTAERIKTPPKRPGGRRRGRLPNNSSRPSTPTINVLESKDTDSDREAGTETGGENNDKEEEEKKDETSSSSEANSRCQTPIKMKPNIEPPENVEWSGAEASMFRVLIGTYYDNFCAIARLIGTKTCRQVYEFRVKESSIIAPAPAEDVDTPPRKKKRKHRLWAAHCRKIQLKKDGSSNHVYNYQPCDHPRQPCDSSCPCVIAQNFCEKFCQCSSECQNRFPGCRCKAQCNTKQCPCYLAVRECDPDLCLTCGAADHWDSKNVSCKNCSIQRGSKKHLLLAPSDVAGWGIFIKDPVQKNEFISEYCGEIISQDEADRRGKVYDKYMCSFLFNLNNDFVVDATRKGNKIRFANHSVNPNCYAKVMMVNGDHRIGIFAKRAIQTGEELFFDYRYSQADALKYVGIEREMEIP
Chain of EZH2 (O75530 whole entry partner): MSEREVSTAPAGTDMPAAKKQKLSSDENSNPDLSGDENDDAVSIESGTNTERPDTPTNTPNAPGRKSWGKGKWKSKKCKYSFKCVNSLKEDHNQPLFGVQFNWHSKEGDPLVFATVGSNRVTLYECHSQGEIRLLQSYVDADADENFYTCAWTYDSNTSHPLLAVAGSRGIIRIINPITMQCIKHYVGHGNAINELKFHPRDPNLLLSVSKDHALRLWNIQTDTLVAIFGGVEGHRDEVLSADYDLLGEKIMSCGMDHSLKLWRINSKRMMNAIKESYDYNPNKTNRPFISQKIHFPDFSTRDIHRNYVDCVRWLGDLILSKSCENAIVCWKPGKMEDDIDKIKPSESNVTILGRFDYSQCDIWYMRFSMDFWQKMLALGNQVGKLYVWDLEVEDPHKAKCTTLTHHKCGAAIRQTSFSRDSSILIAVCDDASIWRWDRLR
Chain of EZH2 (Q15022 whole entry partner): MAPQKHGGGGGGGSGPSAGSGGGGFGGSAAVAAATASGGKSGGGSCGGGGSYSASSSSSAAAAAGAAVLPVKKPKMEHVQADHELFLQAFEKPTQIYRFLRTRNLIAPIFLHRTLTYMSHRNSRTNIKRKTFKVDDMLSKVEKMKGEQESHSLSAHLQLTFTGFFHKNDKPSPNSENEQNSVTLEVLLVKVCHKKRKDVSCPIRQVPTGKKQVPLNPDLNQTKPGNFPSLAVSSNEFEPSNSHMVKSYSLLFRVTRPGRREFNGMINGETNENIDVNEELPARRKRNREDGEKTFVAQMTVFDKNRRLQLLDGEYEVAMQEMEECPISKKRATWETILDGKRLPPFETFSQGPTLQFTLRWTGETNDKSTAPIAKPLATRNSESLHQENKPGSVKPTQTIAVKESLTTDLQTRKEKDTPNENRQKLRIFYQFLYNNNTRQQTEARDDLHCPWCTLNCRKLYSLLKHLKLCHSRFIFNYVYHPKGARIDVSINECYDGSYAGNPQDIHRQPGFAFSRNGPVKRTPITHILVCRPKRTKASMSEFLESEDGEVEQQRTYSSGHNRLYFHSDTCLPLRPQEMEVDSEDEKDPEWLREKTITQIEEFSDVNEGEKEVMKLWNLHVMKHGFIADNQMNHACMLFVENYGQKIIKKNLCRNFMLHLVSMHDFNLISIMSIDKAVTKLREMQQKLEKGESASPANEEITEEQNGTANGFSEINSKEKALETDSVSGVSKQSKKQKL
T1 sequence (Q15910 whole entry): as the sequence (Q15910 whole entry) above
T1 sequence (O75530 whole entry partner): as the sequence (O75530 whole entry partner) above
T1 sequence (Q15022 whole entry partner): as the sequence (Q15022 whole entry partner) above
T1 sequence (Q09028 whole entry partner): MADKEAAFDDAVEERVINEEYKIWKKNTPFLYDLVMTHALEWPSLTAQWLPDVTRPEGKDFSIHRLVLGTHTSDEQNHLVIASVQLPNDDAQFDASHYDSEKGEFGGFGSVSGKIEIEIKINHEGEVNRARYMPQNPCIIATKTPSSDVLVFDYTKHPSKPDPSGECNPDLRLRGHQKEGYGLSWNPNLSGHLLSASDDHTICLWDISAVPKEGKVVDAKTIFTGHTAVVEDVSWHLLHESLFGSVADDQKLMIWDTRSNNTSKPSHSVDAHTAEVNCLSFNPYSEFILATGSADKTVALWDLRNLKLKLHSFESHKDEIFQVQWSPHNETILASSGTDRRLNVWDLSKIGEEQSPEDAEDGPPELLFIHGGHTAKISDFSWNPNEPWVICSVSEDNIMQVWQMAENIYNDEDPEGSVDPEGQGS
T1 sequence (Q6ZN18 whole entry partner): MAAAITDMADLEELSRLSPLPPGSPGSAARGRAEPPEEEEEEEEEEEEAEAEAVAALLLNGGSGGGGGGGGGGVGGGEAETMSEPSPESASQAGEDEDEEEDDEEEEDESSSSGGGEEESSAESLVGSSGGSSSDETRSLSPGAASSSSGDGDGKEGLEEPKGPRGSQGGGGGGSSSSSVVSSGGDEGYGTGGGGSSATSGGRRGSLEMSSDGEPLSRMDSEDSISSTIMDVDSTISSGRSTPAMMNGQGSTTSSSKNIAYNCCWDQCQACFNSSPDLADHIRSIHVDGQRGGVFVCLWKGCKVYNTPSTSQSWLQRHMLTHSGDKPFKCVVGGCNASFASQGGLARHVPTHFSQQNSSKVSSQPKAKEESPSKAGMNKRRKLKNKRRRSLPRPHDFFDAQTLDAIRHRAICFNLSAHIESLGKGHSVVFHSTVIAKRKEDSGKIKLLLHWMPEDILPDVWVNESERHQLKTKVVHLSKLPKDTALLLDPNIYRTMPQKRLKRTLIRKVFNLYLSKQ

SMILES | IC50 [1, 4] [nM] | IC50 [2, 5] [nM] | EC50 ([3]; 72 hrs) [nM] | IC50 [2, 6] [nM] | IC50 [1, 7] [nM] | IC50 [1, 8] [nM] | IC50 [2, 9] [nM] | EC50 ([3]; Homo sapiens, HeLa, 72 h) [nM]
COc1cc(C)[nH]c(=O)c1CNC(=O)c1c(C)n(C(C)C2CCNC(C(F)(F)F)C2)c2ccccc12 (single isomer, unassigned) [Compound 14, N-((4-methoxy-6-methyl-2-oxo-1,2-dihydropyridin-3-yl)methyl)-2-methyl-1-(1-(2-(trifluoromethyl)piperidin-4-yl)ethyl)-1H-indole-3-carboxamide] | < 100 | < 100 | < 400 | – | – | – | – | –
COc1cc(C)[nH]c(=O)c1CNC(=O)c1c(C)n(C(C)C2CCN(C)C(C(F)(F)F)C2)c2ccccc12 (single isomer, unassigned) [Compound 15, N-((4-methoxy-6-methyl-2-oxo-1,2-dihydropyridin-3-yl)methyl)-2-methyl-1-(1-(1-methyl-2-(trifluoromethyl)piperidin-4-yl)ethyl)-1H-indole-3-carboxamide] | < 100 | – | < 400 | < 100 | – | – | – | –
COc1cc(C)[nH]c(=O)c1CNC(=O)c1c(C)n(C(C)C2CCNC(C(F)(F)F)C2)c2ccccc12 (single isomer, unassigned) [Compound 18, N-((4-methoxy-6-methyl-2-oxo-1,2-dihydropyridin-3-yl)methyl)-2-methyl-1-(1-(2-(trifluoromethyl)piperidin-4-yl)ethyl)-1H-indole-3-carboxamide] | – | < 100 | < 400 | – | < 100 | – | – | –
COc1cc(C)[nH]c(=O)c1CNC(=O)c1c(C)n(C(C)C2CCN(C)C(C(F)(F)F)C2)c2ccccc12 (single isomer, unassigned) [Compound 24, N-((4-methoxy-6-methyl-2-oxo-1,2-dihydropyridin-3-yl)methyl)-2-methyl-1-(1-(1-methyl-2-(trifluoromethyl)piperidin-4-yl)ethyl)-1H-indole-3-carboxamide] | – | – | < 400 | < 100 | < 100 | – | – | –
COc1cc(C)[nH]c(=O)c1CNC(=O)c1c(C)n(C(C)C2CCNC(c3ccc(F)cc3)C2)c2ccccc12 (single isomer, unassigned) [Compound 31, 1-(1-(2-(4-fluorophenyl)piperidin-4-yl)ethyl)-N-((4-methoxy-6-methyl-2-oxo-1,2-dihydropyridin-3-yl)methyl)-2-methyl-1H-indole-3-carboxamide] | – | – | 400 to 2000 | – | – | < 100 | < 100 | –
COc1cc(C)[nH]c(=O)c1CNC(=O)c1c(C)n(C(C)C2CCN(CC(F)F)C(C)C2)c2ccccc12 (single isomer, unassigned) [Compound 40, 1-(1-(1-(2,2-difluoroethyl)-2-methylpiperidin-4-yl)ethyl)-N-((4-methoxy-6-methyl-2-oxo-1,2-dihydropyridin-3-yl)methyl)-2-methyl-1H-indole-3-carboxamide] | < 100 | < 100 | – | – | – | – | – | < 400
COc1cc(C)[nH]c(=O)c1CNC(=O)c1c(C)n(C(C)C2CCN(CC(F)(F)F)C(C)C2)c2ccccc12 (single isomer, unassigned) [Compound 43, N-((4-methoxy-6-methyl-2-oxo-1,2-dihydropyridin-3-yl)methyl)-2-methyl-1-(1-(2-methyl-1-(2,2,2-trifluoroethyl)piperidin-4-yl)ethyl)-1H-indole-3-carboxamide] | < 100 | – | < 400 | < 100 | – | – | – | –
COc1cc(C)[nH]c(=O)c1CNC(=O)c1c(C)n(C(C)C2CCN(C3COC3)CC2C(F)(F)F)c2ccccc12 (stereo not drawn) [Compound 8, N-((4-methoxy-6-methyl-2-oxo-1,2-dihydropyridin-3-yl)methyl)-2-methyl-1-(1-(1-(oxetan-3-yl)-3-(trifluoromethyl)piperidin-4-yl)ethyl)-1H-indole-3-carboxamide] | < 100 | < 100 | – | – | – | – | – | > 2000
COc1cc(C)[nH]c(=O)c1CNC(=O)c1c(C)n(C(C)C2CCN(C)C(c3ccc(F)cc3)C2)c2ccccc12 (stereo not drawn) [Compound 33, 1-(1-(2-(4-fluorophenyl)-1-methylpiperidin-4-yl)ethyl)-N-((4-methoxy-6-methyl-2-oxo-1,2-dihydropyridin-3-yl)methyl)-2-methyl-1H-indole-3-carboxamide] | – | – | – | – | – | < 100 | < 100 | 400 to 2000
